Experimental data from ChEMBL document CHEMBL1131221, “2'-C-Methyl analogues of selective adenosine receptor agonists: synthesis and binding studies” (J Med Chem, 1998).

How the values were obtained:
[1] = biological target: T1, Adenosine receptor A3 (Rattus norvegicus) (UniProt P28647); experiment: Inhibitory activity against Adenosine A3 receptor by inhibition of [3H](R)-PIA binding to rat testis membranes; assay type: cell membranes; conditions: Membrane, concentration not given here
T1 sequence (whole entry): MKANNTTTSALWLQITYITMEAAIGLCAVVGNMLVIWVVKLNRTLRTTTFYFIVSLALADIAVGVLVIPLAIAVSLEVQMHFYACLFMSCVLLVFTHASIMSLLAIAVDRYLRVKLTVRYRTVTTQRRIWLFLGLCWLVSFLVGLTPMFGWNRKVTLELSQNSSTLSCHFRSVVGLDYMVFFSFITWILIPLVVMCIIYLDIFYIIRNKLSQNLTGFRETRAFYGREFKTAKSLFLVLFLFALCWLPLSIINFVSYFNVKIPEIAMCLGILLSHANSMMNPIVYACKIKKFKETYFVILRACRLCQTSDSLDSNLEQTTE

Adenosine receptor A3 = biological target: T2, Adenosine receptor A3 (Rattus norvegicus, UniProt P28647); experiment: Inhibitory activity against Adenosine A3 receptor by inhibiting specific [3H](R)-PIA binding to rat testis membranes; set-up: species or system Membrane
T2 sequence (P28647 whole entry): T1 sequence (whole entry)

[2] = Inhibitory selectivity at Adenosine A3 receptor compared to Adenosine 1 receptor.
[3] = Inhibitory selectivity at Adenosine A3 receptor compared to Adenosine 2A receptor.
[4] = Inhibitory selectivity at Adenosine 2A receptor compared to Adenosine 1 receptor.
Adenosine receptor A1 = biological target: T3, Adenosine receptor A1 (Bos taurus, UniProt P28190)
T3 sequence (P28190 whole entry): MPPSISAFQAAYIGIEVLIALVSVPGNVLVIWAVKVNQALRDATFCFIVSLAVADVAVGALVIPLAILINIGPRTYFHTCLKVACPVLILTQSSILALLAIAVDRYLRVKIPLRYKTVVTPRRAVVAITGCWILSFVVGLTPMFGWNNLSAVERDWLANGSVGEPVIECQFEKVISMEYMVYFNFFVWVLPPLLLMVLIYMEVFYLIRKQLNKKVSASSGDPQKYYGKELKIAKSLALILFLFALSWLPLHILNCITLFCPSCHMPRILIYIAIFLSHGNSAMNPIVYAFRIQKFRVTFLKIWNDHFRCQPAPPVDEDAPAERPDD
Description: Inhibitory activity at Adenosine A1 receptor by inhibition of [3H]CHA binding to bovine brain cortical membranes.

Adenosine receptor A2a = Adenosine receptor A2a (Homo sapiens, UniProt P29274)
Adenosine receptor A2a, sequence (P29274 whole entry): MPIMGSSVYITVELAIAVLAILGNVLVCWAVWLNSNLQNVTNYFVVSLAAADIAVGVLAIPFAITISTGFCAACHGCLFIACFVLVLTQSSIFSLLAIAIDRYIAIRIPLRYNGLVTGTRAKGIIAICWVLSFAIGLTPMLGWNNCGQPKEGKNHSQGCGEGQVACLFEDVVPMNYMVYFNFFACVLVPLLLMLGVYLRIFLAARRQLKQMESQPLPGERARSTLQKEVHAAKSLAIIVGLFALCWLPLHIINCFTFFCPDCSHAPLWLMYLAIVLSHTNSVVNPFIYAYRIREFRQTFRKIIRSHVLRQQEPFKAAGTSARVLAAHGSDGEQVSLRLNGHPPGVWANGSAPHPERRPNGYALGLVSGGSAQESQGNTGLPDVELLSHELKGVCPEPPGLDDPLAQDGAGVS
Description: Inhibitory activity at Adenosine A2A receptor by inhibition of [3H]-CGS- 21680 binding to bovine striatal membranes.

Rattus norvegicus [5] = species on record: Rattus norvegicus; experiment: The compound was tested for the concentration to inhibit 50% of Adenylyl cyclase activity in rat cortical membranes.; assay type: functional
Rattus norvegicus [6] = species on record: Rattus norvegicus; experiment: Maximal % inhibition of adenylyl cyclase activity in rat cortical membranes at a concentration of 10 uM.; assay type: functional
Rattus norvegicus [7] = species on record: Rattus norvegicus; experiment: (§1) Inhibitory activity against Adenylyl cyclase in rat cortical membranes in the presence of 2''-IB-Ado at concentration 30 nM; assay type: functional
Rattus norvegicus [8] = species on record: Rattus norvegicus; experiment: (§2) Inhibitory activity against Adenylyl cyclase in rat cortical membranes in the presence of 2''-Me-CPA at concentration 50 nM; assay type: functional
Rattus norvegicus [9] = species on record: Rattus norvegicus; experiment: as §1; assay type: functional; remark: listed apart in the source
Rattus norvegicus [10] = species on record: Rattus norvegicus; experiment: (§3) Inhibitory activity against Adenylyl cyclase in rat cortical membranes in the presence of 2''-Me-CCPA at concentration 30 nM; assay type: functional
Rattus norvegicus [11] = species on record: Rattus norvegicus; experiment: as §2; assay type: functional; remark: listed apart in the source
Rattus norvegicus [12] = species on record: Rattus norvegicus; experiment: as §3; assay type: functional; remark: listed apart in the source

SMILES | Ki (Adenosine receptor A3) [nM] | Ki (Adenosine receptor A1) [nM] | Ki (Adenosine receptor A2a) [nM] | IC50 (Rattus norvegicus [5]) [nM] | Max inhibition (Rattus norvegicus [6]) [%] | also measured
C[C@@]1(O)[C@H](O)[C@@H](CO)O[C@H]1n1cnc2c(N)ncnc21 | – | – | – | – | – | inhibition [1]: 0%
CCNC(=O)[C@H]1O[C@@H](n2cnc3c(N)ncnc32)[C@](C)(O)[C@@H]1O | 550 | 142 | 218 | – | – | Selectivity [2]: 3.8; Selectivity [3]: 2.5; Selectivity [4]: 1.5
C[C@@H](Cc1ccccc1)Nc1ncnc2c1ncn2[C@@H]1O[C@H](CO)[C@@H](O)[C@H]1O [(S)-PIA] | 241 | – | – | – | – | –
OC[C@H]1O[C@@H](n2cnc3c(NC4CCCC4)nc(Cl)nc32)[C@H](O)[C@@H]1O | – | 0.35 | 580 | – | – | –
C[C@@]1(O)[C@H](O)[C@@H](CO)O[C@H]1n1cnc2c(NCc3cccc(I)c3)ncnc21 | – | 20.1 | – | 1.6 | 10.9 | –
OC[C@H]1O[C@@H](n2cnc3c(NC4CCCC4)ncnc32)[C@H](O)[C@@H]1O [N6-CYCLOPENTYLADENOSINE] | – | – | 385 | 11.6 | 15.5 | –
C[C@]1(O)C(n2cnc3c(N)nc(Cl)nc32)O[C@H](CO)[C@H]1O (stereo partly drawn) | – | 533 | – | – | – | inhibition [1]: 10%
C[C@H](Cc1ccccc1)Nc1ncnc2c1ncn2[C@@H]1O[C@H](CO)[C@@H](O)[C@@]1(C)O | 1080 | 4.7 | 7440 | 1.6 | 13.7 | –
C[C@H](Cc1ccccc1)Nc1ncnc2c1ncn2[C@@H]1O[C@H](CO)[C@@H](O)[C@H]1O [(R)-PIA] | 53 | – | – | – | – | –
OC[C@H]1O[C@@H](n2cnc3c(NC4CCCCC4)ncnc32)[C@H](O)[C@@H]1O | – | – | – | 1.4 | 16.2 | IC50 (Rattus norvegicus [7]): 1.5 nM; IC50 (Rattus norvegicus [8]): 1.4 nM; Max inhibition (Rattus norvegicus [9]): 16%; Max inhibition (Rattus norvegicus [10]): 16.1%; Max inhibition (Rattus norvegicus [11]): 16.2%; IC50 (Rattus norvegicus [12]): 1.6 nM
C[C@@]1(O)[C@H](O)[C@@H](CO)O[C@H]1n1cnc2c(NC3CCCC3)ncnc21 | 208 | 9.5 | – | 2.3 | 11 | –
CNC(=O)[C@H]1O[C@@H](n2cnc3c(NCc4cccc(I)c4)ncnc32)[C@H](O)[C@@H]1O [IB-MECA] | – | 33.1 | – | – | – | –
Nc1nc(Cl)nc2c1ncn2[C@@H]1O[C@H](CO)[C@@H](O)[C@H]1O | 3200 | 20.2 | 120 | – | – | Selectivity [2]: 158; Selectivity [3]: 26.6; Selectivity [4]: 5.9
OC[C@H]1O[C@@H](n2cnc3c(NCc4cccc(I)c4)ncnc32)[C@H](O)[C@@H]1O | – | 18.6 | – | – | – | –
C[C@@H](Cc1ccccc1)Nc1ncnc2c1ncn2C1O[C@H](CO)[C@@H](O)[C@@]1(C)O (stereo partly drawn) | 10000 | 50 | – | – | – | –
C[C@@]1(O)[C@@H](CO)O[C@@H](n2cnc3c(N)ncnc32)[C@@H]1O | – | 49500 | – | – | – | inhibition [1]: 8%
CNC(=O)[C@H]1OC(n2cnc3c(NCc4cccc(I)c4)ncnc32)[C@](C)(O)[C@@H]1O (stereo partly drawn) | 320 | 254 | 1530 | – | – | Selectivity [2]: 1.2; Selectivity [3]: 0.2; Selectivity [4]: 6
C[C@@]1(O)[C@H](O)[C@@H](CO)O[C@H]1n1cnc2c(NC3CCCC3)nc(Cl)nc21 | 5000 | 1.8 | – | 13.1 | 15.1 | –
